Converted amounts (≈) assume the structure as drawn. Where two headings read alike, the source gives them in different places.
Key:
N. gonorrhoeae FA19 = test: Liquid broth MIC, N. gonorrhoeae FA19; assay type: cell-based; details: Neisseria gonorrhoeae; N. gonorrhoeae FA19, liquid broth; read-out: Minimum Inhibitory Concentration, N. gonorrhoeae FA19
Procedure, shortened: (§1)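 Broth microdilution in wild-type strains: colonies from GC agar with 1% Kellogg's supplement suspended in GC broth, inoculated at 5×10^5 CFU/mL into 2-fold compound dilutions. Plates incubated 40-42 hours at 36° C., 5% CO2; MIC read visually as lowest concentration with no growth.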

K. pneumoniae 848844 = test: microbe, parasite or virus in culture; assay type: cell-based, Klebsiella pneumoniae
Procedure, shortened: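 Broth microdilution MICs followed CLSI methods in cation-supplemented Mueller-Hinton broth, with 2-fold serial compound dilutions. Log-phase cultures grown 3–5 h were added to a starting inoculum of 5×10^5 CFU/mL and incubated 16–20 h at 37 °C. The MIC was read visually as the lowest concentration with no growth.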

E. coli AG100 = test: Broth microdilution MIC, E. coli AG100 (wild-type parent); assay type: cell-based; details: Escherichia coli
Procedure, shortened: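 Broth microdilution in cation-supplemented Mueller-Hinton broth, 2-fold serial compound dilutions, inoculum 5×10^5 CFU/mL from 3-5 h log culture.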

N. gonorrhoeae FA1090 = test: Liquid broth MIC, N. gonorrhoeae FA1090; assay type: cell-based; details: Neisseria gonorrhoeae; N. gonorrhoeae FA1090, liquid broth; read-out: Minimum Inhibitory Concentration, N. gonorrhoeae FA1090
Procedure, shortened: as §1

E. coli PBP3 = E. coli PBP3 (Escherichia coli (strain K12), UniProt P0AD68); test: E. coli PBP3 Bocillin-FL fluorescence polarization competition binding assay
Chain of E. coli PBP3 (P0AD68 whole entry): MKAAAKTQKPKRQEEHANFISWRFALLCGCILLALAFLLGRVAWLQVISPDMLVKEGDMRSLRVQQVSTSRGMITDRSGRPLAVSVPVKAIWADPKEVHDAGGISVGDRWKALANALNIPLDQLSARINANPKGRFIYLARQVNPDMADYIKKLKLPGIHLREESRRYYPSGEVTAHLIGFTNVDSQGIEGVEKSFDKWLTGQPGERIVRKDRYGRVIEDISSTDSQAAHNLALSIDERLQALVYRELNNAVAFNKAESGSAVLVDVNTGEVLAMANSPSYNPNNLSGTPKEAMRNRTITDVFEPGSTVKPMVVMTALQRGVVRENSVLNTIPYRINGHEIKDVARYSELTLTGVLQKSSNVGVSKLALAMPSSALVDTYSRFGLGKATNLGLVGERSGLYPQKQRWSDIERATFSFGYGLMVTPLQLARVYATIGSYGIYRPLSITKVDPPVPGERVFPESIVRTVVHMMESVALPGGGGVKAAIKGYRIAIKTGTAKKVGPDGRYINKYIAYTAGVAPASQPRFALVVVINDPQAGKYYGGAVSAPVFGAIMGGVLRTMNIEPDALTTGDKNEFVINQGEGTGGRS
Procedure, shortened: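 Purified E. coli PBP (1.5 μM final) competed with inhibitor (0-1000 μM) for Bocillin-FL (0.1 μM final) in 50 mM Hepes pH 8.0, 300 mM NaCl, 5% glycerol. Fluorescence polarization (ex 490/em 520 nm) was read continuously for 60 min after Bocillin-FL addition. EC50 was the concentration that reduced Bocillin-FL binding by 50%.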

[1] = Klebsiella pneumoniae, K. pneumoniae 848844 producing SHV-11 and KPC-2, read-out: MIC K. pneumoniae 848844
[2] = wild-type parent E. coli AG100, broth microdilution, read-out: MIC E. coli AG100
[3] = fluorescence polarization competition binding with Bocillin-FL, read-out: E. coli K12 PBP3 Potency

| Structure (SMILES) | MIC (N. gonorrhoeae FA19) [µg/mL] | MIC (K. pneumoniae 848844; [1]) [µg/mL] | MIC (E. coli AG100; [2]) [µg/mL] | MIC (N. gonorrhoeae FA1090) [µg/mL] | EC50 (E. coli PBP3) [µM] | EC50 (E. coli PBP3; [3]) [µM] | MIC (K. pneumoniae 848844; Klebsiella pneumoniae, 848844, read-out: MIC K. pneumoniae 848844) [µg/mL] | MIC (E. coli AG100; AG100, read-out: MIC E. coli AG100) [µg/mL] |
| --- | --- | --- | --- | --- | --- | --- | --- | --- |
| CCN1CCN(C(=O)NC(C(=O)N[C@H]2Cc3cccc(C(=O)O)c3OB2O)c2csc(N)n2)C(=O)C1=O (stereo partly drawn) [Example 5, (3R)-3-(2-(2-aminothiazol-4-yl)-2-(4-ethyl-2,3-dioxopiperazine-1-carboxamido)acetamido)-2-hydroxy-3,4-dihydro-2H-benzo[e][1,2]oxaborinine-8-carboxylic acid] | 1 to 2 (≈ 1.89 to 3.77 µM) | 32 to 64 | 8 to 16 | < 0.125 |  |  |  |  |
| CCN1CCN(C(=O)NC(C(=O)N[C@H]2Cc3cc(F)cc(C(=O)O)c3OB2O)c2csc(N)n2)C(=O)C1=O (stereo partly drawn) [Example 16, (3R)-3-(2-(2-aminothiazol-4-yl)-2-(4-ethyl-2,3-dioxopiperazine-1-carboxamido)acetamido)-6-fluoro-2-hydroxy-3,4-dihydro-2H-benzo[e][1,2]oxaborinine-8-carboxylic acid] |  | 32 to 64 | 32 to 64 |  | 30 to 500 |  |  |  |
| CCN1CCN(C(=O)NC(C(=O)N[C@H]2Cc3cccc(C(=O)O)c3OB2O)c2ccc(O)cc2)C(=O)C1=O (stereo partly drawn) [Example 27, (3R)-3-(2-(4-ethyl-2,3-dioxopiperazine-1-carboxamido)-2-(4-hydroxyphenyl)acetamido)-2-hydroxy-3,4-dihydro-2H-benzo[e][1,2]oxaborinine-8-carboxylic acid] |  | > 128 | 32 to 64 |  | 30 to 500 |  |  |  |
| CCN1CCN(C(=O)NC(C(=O)N[C@H]2Cc3cccc(C(=O)O)c3OB2O)c2ccc(O)c(O)c2Cl)C(=O)C1=O (stereo partly drawn) [Example 37, (3R)-3-(2-(2-chloro-3,4-dihydroxyphenyl)-2-(4-ethyl-2,3-dioxopiperazine-1-carboxamido)acetamido)-2-hydroxy-3,4-dihydro-2H-benzo[e][1,2]oxaborinine-8-carboxylic acid] | 4 to 8 (≈ 6.96 to 13.9 µM) |  | 32 to 64 | 1 to 2 (≈ 1.74 to 3.48 µM) |  | < 30 |  |  |
| CCN1CCN(C(=O)NC(C(=O)N[C@H]2Cc3cccc(C(=O)O)c3OB2O)c2cnc(N)s2)C(=O)C1=O (stereo partly drawn) [Example 51, (3R)-3-(2-(2-aminothiazol-5-yl)-2-(4-ethyl-2,3-dioxopiperazine-1-carboxamido)acetamido)-2-hydroxy-3,4-dihydro-2H-benzo[e][1,2]oxaborinine-8-carboxylic acid] |  |  | 32 to 64 |  | 30 to 500 |  |  |  |
| CCCN1CCN(C(=O)NC(C(=O)N[C@H]2Cc3cccc(C(=O)O)c3OB2O)c2ccc(O)c(O)c2Cl)C(=O)C1=O (stereo partly drawn) [Example 82, (3R)-3-(2-(2-chloro-3,4-dihydroxyphenyl)-2-(2,3-dioxo-4-propylpiperazine-1-carboxamido)acetamido)-2-hydroxy-3,4-dihydro-2H-benzo[e][1,2]oxaborinine-8-carboxylic acid] |  | > 128 | 32 to 64 |  |  | < 30 |  |  |
| CCN1CCN(C(=O)NC(C(=O)N[C@H]2Cc3cccc(C(=O)O)c3OB2O)c2ccc(O)cc2F)C(=O)C1=O (stereo partly drawn) [Example 87, (3R)-3-(2-(4-ethyl-2,3-dioxopiperazine-1-carboxamido)-2-(2-fluoro-4-hydroxyphenyl)acetamido)-2-hydroxy-3,4-dihydro-2H-benzo[e][1,2]oxaborinine-8-carboxylic acid] | 4 to 8 (≈ 7.38 to 14.8 µM) |  |  | < 0.125 |  | < 30 |  |  |
| CCN1CCN(C(=O)NC(C(=O)N[C@H]2Cc3cccc(C(=O)O)c3OB2O)c2cc(O)c(O)cc2F)C(=O)C1=O (stereo partly drawn) [Example 90, (3R)-3-(2-(4-ethyl-2,3-dioxopiperazine-1-carboxamido)-2-(2-fluoro-4,5-dihydroxyphenyl)acetamido)-2-hydroxy-3,4-dihydro-2H-benzo[e][1,2]oxaborinine-8-carboxylic acid] |  | 32 to 64 | 8 to 16 |  |  | < 30 |  |  |
| CCN1CCN(C(=O)NC(C(=O)N[C@H]2Cc3cccc(C(=O)O)c3OB2O)c2ccc(S(N)(=O)=O)cc2)C(=O)C1=O (stereo partly drawn) [Example 102, (3R)-3-(2-(4-ethyl-2,3-dioxopiperazine-1-carboxamido)-2-(4-sulfamoylphenyl)acetamido)-2-hydroxy-3,4-dihydro-2H-benzo[e][1,2]oxaborinine-8-carboxylic acid] | 1 to 2 (≈ 1.7 to 3.4 µM) |  | 8 to 16 | < 0.125 |  | < 30 |  |  |
| NS(=O)(=O)c1ccc(C(NC(=O)N2CCN(CCF)C(=O)C2=O)C(=O)N[C@H]2Cc3cccc(C(=O)O)c3OB2O)cc1 (stereo partly drawn) [Example 103, (3R)-3-(2-(4-(2-fluoroethyl)-2,3-dioxopiperazine-1-carboxamido)-2-(4-sulfamoylphenyl)acetamido)-2-hydroxy-3,4-dihydro-2H-benzo[e][1,2]oxaborinine-8-carboxylic acid] | 1 to 2 (≈ 1.65 to 3.3 µM) |  | 8 to 16 | < 0.125 |  | < 30 |  |  |
| CCN1CCN(C(=O)NC(C(=O)N[C@H]2Cc3cccc(C(=O)O)c3OB2O)c2cccc(N)n2)C(=O)C1=O (stereo partly drawn) [Example 104, (3R)-3-(2-(6-aminopyridin-2-yl)-2-(4-ethyl-2,3-dioxopiperazine-1-carboxamido)acetamido)-2-hydroxy-3,4-dihydro-2H-benzo[e][1,2]oxaborinine-8-carboxylic acid] |  | > 128 | 32 to 64 |  |  | < 30 |  |  |
| CCN1CCN(C(=O)NC(C(=O)N[C@H]2Cc3cccc(C(=O)[O-])c3OB2O)c2ccc[n+](CC(N)=O)c2)C(=O)C1=O (stereo partly drawn) [Example 107, (3R)-3-(2-(1-(2-amino-2-oxoethyl)pyridin-1-ium-3-yl)-2-(4-ethyl-2,3-dioxopiperazine-1-carboxamido)acetamido)-2-hydroxy-3,4-dihydro-2H-benzo[e][1,2]oxaborinine-8-carboxylate] |  | 32 to 64 | 32 to 64 |  |  | > 500 |  |  |
| CCN1CCN(C(=O)NC(C(=O)N[C@H]2Cc3ccc(F)c(C(=O)O)c3OB2O)c2csc(N)n2)C(=O)C1=O (stereo partly drawn) [Example 109, (3R)-3-(2-(2-aminothiazol-4-yl)-2-(4-ethyl-2,3-dioxopiperazine-1-carboxamido)acetamido)-7-fluoro-2-hydroxy-3,4-dihydro-2H-benzo[e][1,2]oxaborinine-8-carboxylic acid] | 4 to 8 (≈ 7.3 to 14.6 µM) | 32 to 64 | 8 to 16 | 0.25 to 0.5 (≈ 0.456 to 0.912 µM) |  | < 30 |  |  |
| CCN1CCN(C(=O)N[C@@H](C(=O)N[C@H]2Cc3ccc(F)c(C(=O)O)c3OB2O)[C@@H](C)O)C(=O)C1=O [Example 110, (R)-3-((2R,3R)-2-(4-ethyl-2,3-dioxopiperazine-1-carboxamido)-3-hydroxybutanamido)-7-fluoro-2-hydroxy-3,4-dihydro-2H-benzo[e][1,2]oxaborinine-8-carboxylic acid] |  | 32 to 64 | 8 to 16 |  | 30 to 500 |  |  |  |
| CCN1CCN(C(=O)NC(C(=O)N[C@H]2Cc3cccc(C(=O)O)c3OB2O)c2ccc(B(O)O)cc2)C(=O)C1=O (stereo partly drawn) [Example 112] | 1 to 2 (≈ 1.81 to 3.62 µM) |  |  | < 0.125 | 30 to 500 |  | > 128 | 32 to 64 |
| O=C(O)c1cccc2c1OB(O)[C@@H](NC(=O)C(NC(=O)N1CCN(CCF)C(=O)C1=O)c1ccc(B(O)O)cc1)C2 (stereo partly drawn) [Example 113, (3R)-3-(2-(4-boronophenyl)-2-(4-(2-fluoroethyl)-2,3-dioxopiperazine-1-carboxamido)acetamido)-2-hydroxy-3,4-dihydro-2H-benzo[e][1,2]oxaborinine-8-carboxylic acid] | 1 to 2 (≈ 1.75 to 3.51 µM) | > 128 | 32 to 64 | < 0.125 | 30 to 500 |  |  |  |
| CCN1CCN(C(=O)NC(C(=O)N[C@H]2Cc3cccc(C(=O)O)c3OB2O)c2cccs2)C(=O)C1=O (stereo partly drawn) [Example 115, (3R)-3-(2-(4-ethyl-2,3-dioxopiperazine-1-carboxamido)-2-(thiophen-2-yl)acetamido)-2-hydroxy-3,4-dihydro-2H-benzo[e][1,2]oxaborinine-8-carboxylic acid] |  | > 128 | 32 to 64 |  |  | < 30 |  |  |
| CCN1CCN(C(=O)NC(C(=O)N[C@H]2Cc3cccc(C(=O)O)c3OB2O)c2cccc(O)n2)C(=O)C1=O (stereo partly drawn) [Example 117, (3R)-3-(2-(4-ethyl-2,3-dioxopiperazine-1-carboxamido)-2-(6-hydroxypyridin-2-yl)acetamido)-2-hydroxy-3,4-dihydro-2H-benzo[e][1,2]oxaborinine-8-carboxylic acid] |  | 32 to 64 | > 128 |  | 30 to 500 |  |  |  |
| CCN1CCN(C(=O)NC(C(=O)N[C@H]2Cc3cccc(C(=O)O)c3OB2O)c2cnc(O)cn2)C(=O)C1=O (stereo partly drawn) [Example 121, (3R)-3-(2-(4-ethyl-2,3-dioxopiperazine-1-carboxamido)-2-(5-hydroxypyrazin-2-yl)acetamido)-2-hydroxy-3,4-dihydro-2H-benzo[e][1,2]oxaborinine-8-carboxylic acid] |  | > 128 | 32 to 64 |  | 30 to 500 |  |  |  |
